Two compounds from the NIST ThermoML archive (doi:10.1021/je8002207) can be followed below.

Data set [1] in a line: Molar enthalpy of transition or fusion. As to conditions: Crystal; DSC.
For data set [2] the following is noted: Crystal; DTA.

± gives the expanded uncertainty stated by the source.

On to `CN[C@@]1(c2ccccc2Cl)CCCCC1=O` [(R)-ketamine], for which the “Molar enthalpy of transition or fusion” value in data set [1] came to 6.86 ± 0.198 kcal/mol. The Normal melting temperature in data set [2] is 121.0 ± 0.5 °C.

For `CN[C@]1(c2ccccc2Cl)CCCCC1=O` [(S)-ketamine], the “Molar enthalpy of transition or fusion” value in data set [1] worked out at 6.86 ± 0.198 kcal/mol. In data set [2], the Normal melting temperature is 121.0 ± 0.5 °C.
